Reference: ChEMBL document CHEMBL1201862, “PubChem BioAssay data set” (2004)
Active and inactive are the calls of the source.

Columns and labels:
[1] = activation of miR-122 Renilla sensor silencing – cell-based, Huh7 psiCHECK-miR122, Renilla luciferase, cherry-picked, dose response (AID 651956); assay type: functional;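 note: huh7 hepatoma cells stably carrying a psiCHECK-2 miR-122 sensor plasmid; renilla luciferase signal reporting endogenous miR-122 activity after 48 h compound exposure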
[2] = target: Paired box protein Pax-8 (Homo sapiens, UniProt Q06710); experiment: PAX8 transcriptional activity inhibition in RMG-I – RMG-I cells, luciferase, cherry-pick, dose response (AID 687027); assay type: functional, cell-based;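 note: luciferase reporter driven by Pax8 target thyroperoxidase promoter measured by SteadyGlo luminescence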
[3] = OVCAR8 cell viability loss – plate reader, dry powder samples, PAX8 project, dose response (AID 743197); assay type: functional, cell-based; conditions: OVCAR-8
[4] = IGROV1 cell killing – plate reader, dry powder samples, PAX8 inhibitor project, dose response (AID 743043); assay type: functional, cell-based; conditions: IGROV-1
[5] = OVCAR-3 cell viability loss – plate reader, dry powder samples, PAX8 inhibitor project, dose response (AID 743044); assay type: functional, cell-based
[6] = A2780 cell killing – plate reader, dry powder samples, cytotoxicity control, dose response (AID 743046); assay type: functional, cell-based
[7] = target: Protein Wnt-3a (Mus musculus, UniProt P27467); experiment: SAR analysis of small molecule antagonists of Gli-SUFU in a Wnt3a luminescent reporter assay.; assay type: functional
[8] = tested on: A549; experiment: viability loss in A549 cells – cell-based, plate reader, cherry-pick samples, cytotoxicity control, dose response (AID 687028); assay type: functional; conditions: Homo sapiens
[9] = tested on: BHK-21; experiment: viability loss in BHK-21 cells – cell-based, plate reader, cherry-pick samples, cytotoxicity control, dose response (AID 687030); assay type: functional; conditions: Mesocricetus auratus
[10] = potency of ADAM10 substrate cleavage blockers – biochemical, QFRET, dose response (AID 743254);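 note: ADAM10 enzyme with the DM2 quenched FRET peptide as substrate; EDANS fluorescence gain as the protease cuts the substrate; inhibitor potency against ADAM10 proteolytic activity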
[11] = target: Disintegrin and metalloproteinase domain-containing protein 17 (Homo sapiens, UniProt P78536); experiment: inhibition of ADAM17 substrate cleavage – biochemical, quenched FRET substrate, counter-screen for ADAM10 exosite inhibitor project, dose response (AID 743253)
[12] = HGIII-sPLA2 enzyme inhibition potency – biochemical, QFRET, IC50, dose response (AID 743457);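 note: green fluorescence rise as the enzyme cleaves BODIPY PC-A2 in liposomes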
[13] = A549 cell cytotoxicity, dose response, cytotoxicity control, plate reader, cherry-pick, antagonist series (AID 743412); assay type: functional, cell-based
[14] = inhibition of bursicon-driven LGR2 cAMP signaling – cell-based, HEK293, CRE-luciferase reporter, cherry pick, dose response (AID 743342); assay type: functional
[15] = target: T1, Matrix metalloproteinase-14 (Homo sapiens, UniProt P50281); experiment: SAR confirmation of uHTS hits for a small molecule inhibitors of MT1-MMP activation in a fluorescence assay.; assay type: functional
[16] = target: T1, Matrix metalloproteinase-14; experiment: Dose Response confirmation of uHTS hits for a small molecule inhibitors of MT1-MMP activation in a fluorescence assay set 1.; assay type: functional
[17] = target: T2, Low molecular weight phosphotyrosine protein phosphatase (Homo sapiens, UniProt P24666); assay type: functional; conditions: read-out: IC50_Mean
T2 sequence (P24666 whole entry): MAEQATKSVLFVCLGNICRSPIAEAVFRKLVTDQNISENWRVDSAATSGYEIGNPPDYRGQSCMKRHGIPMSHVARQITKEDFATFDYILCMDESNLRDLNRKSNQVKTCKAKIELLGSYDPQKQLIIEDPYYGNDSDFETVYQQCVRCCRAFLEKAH

[18] = target: T3, Carboxy-terminal domain RNA polymerase II polypeptide A small phosphatase 1 (Homo sapiens, UniProt Q9GZU7); experiment: CTDSP1 inhibitors, concentration-response, biochemical, absorbance readout, ultra-high-throughput screen actives (AID 540297); assay type: functional
T3 sequence (Q9GZU7 whole entry): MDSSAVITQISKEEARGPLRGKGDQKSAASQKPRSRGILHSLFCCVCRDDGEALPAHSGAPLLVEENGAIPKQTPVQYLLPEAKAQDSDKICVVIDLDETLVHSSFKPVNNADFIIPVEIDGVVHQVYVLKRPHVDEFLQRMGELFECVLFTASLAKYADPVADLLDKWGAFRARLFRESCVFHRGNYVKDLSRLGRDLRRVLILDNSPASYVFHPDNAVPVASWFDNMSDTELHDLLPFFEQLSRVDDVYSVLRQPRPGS

[19] = target: T2, Low molecular weight phosphotyrosine protein phosphatase; assay type: functional; conditions: read-out: IC50_Mean; remark: listed apart in the source
[20] = target: T4, Tyrosine-protein phosphatase non-receptor type 22 (Homo sapiens, UniProt Q9Y2R2); experiment: PTPN22 enzyme inhibitors – biochemical, fluorescence, LYP catalytic domain, selectivity assay for LMPTP inhibitor project, dose response (AID 652006); assay type: functional; conditions: read-out: IC50_Mean
T4 sequence (Q9Y2R2 whole entry): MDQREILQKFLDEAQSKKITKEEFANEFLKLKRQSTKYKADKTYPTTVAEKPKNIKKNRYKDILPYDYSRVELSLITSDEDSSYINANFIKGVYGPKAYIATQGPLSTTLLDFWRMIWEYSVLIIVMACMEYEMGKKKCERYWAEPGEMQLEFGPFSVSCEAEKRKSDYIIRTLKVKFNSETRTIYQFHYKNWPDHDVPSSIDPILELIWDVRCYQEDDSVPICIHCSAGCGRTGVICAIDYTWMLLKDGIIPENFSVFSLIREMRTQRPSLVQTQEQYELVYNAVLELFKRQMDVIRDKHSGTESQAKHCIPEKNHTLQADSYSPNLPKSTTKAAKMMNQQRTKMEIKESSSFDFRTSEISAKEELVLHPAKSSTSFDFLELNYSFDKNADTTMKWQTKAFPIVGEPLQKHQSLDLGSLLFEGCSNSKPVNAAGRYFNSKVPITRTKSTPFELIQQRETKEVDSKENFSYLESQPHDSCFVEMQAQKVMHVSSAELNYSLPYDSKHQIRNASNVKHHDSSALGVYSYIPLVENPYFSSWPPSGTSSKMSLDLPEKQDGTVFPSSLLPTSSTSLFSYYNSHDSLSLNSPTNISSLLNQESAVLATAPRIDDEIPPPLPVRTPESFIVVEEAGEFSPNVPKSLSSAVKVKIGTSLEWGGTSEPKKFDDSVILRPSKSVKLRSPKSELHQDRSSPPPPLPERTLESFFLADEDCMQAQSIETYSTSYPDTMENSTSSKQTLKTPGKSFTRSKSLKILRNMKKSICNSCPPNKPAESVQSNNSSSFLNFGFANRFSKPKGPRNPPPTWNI

[21] = Counterscreen for activators of the function of SWI/SNF related, matrix associated, actin dependent regulator of chromatin, subfamily a, member 2 (SMARCA2, BRM): Luminescence-based cell-based high throughput dose response assay to identify non-selective compounds using the VP16 reporter assay.; assay type: functional
[22] = target: SWI/SNF-related matrix-associated actin-dependent regulator of chromatin subfamily A member 2 (Homo sapiens, UniProt P51531); experiment: Luminescence-based cell-based high throughput dose response assay to identify activators of the function of SWI/SNF related, matrix associated, actin dependent regulator of chromatin, subfamily a, member 2 (SMARCA2, BRM).; assay type: functional
[23] = cytotoxicity in HEK293 background cells – cell-based, dry powder, set 2, counter-screen for EBV LMP1 inhibitor project, dose response (AID 624374); assay type: functional
[24] = cells; assay type: functional, cell-based
[25] = cells; assay type: functional, cell-based; remark: listed apart in the source
[26] = target: ADP-ribosylation factor GTPase-activating protein 1 (Rattus norvegicus, UniProt Q62848); experiment: Fluorescence polarization-based biochemical high throughput dose response screening assay to identify inhibitors of ADP-ribosylation factor GTPase activating protein 1 (ARFGAP1).; assay type: functional
Chain of ADP-ribosylation factor GTPase-activating protein 1 (Q62848 whole entry): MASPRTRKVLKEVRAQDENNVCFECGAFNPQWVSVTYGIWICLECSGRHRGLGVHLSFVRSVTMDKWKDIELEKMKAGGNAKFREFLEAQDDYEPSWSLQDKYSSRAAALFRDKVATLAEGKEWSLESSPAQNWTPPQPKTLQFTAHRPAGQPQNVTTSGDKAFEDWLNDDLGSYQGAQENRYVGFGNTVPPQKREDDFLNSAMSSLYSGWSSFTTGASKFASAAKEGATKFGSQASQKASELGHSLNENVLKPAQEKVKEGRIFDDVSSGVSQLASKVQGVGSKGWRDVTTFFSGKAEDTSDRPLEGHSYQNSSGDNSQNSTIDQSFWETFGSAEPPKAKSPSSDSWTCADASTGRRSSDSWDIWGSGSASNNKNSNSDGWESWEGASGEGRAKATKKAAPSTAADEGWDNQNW

Chain of Disintegrin and metalloproteinase domain-containing protein 17 (P78536 whole entry, the tested form may be a part): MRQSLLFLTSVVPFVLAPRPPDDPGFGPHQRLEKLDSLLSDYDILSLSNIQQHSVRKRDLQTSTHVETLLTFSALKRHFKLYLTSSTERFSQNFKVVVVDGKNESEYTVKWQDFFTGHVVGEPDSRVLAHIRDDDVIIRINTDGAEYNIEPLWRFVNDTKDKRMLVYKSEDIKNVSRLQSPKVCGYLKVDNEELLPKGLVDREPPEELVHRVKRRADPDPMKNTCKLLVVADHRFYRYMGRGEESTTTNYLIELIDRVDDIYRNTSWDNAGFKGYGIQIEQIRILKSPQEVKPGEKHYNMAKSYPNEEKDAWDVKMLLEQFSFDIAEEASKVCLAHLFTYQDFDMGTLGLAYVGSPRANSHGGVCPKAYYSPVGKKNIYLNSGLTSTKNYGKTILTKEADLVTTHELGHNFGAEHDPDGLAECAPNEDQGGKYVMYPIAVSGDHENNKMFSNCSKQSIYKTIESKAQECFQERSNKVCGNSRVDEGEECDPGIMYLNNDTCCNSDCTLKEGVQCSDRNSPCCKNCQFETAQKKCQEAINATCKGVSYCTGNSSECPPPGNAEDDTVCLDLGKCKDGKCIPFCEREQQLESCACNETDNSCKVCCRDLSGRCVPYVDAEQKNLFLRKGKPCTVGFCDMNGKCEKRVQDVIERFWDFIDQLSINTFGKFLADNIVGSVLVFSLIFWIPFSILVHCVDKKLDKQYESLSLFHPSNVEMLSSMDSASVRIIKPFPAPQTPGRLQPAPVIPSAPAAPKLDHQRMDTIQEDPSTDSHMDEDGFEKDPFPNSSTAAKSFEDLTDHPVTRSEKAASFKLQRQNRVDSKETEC
Chain of Paired box protein Pax-8 (Q06710 whole entry): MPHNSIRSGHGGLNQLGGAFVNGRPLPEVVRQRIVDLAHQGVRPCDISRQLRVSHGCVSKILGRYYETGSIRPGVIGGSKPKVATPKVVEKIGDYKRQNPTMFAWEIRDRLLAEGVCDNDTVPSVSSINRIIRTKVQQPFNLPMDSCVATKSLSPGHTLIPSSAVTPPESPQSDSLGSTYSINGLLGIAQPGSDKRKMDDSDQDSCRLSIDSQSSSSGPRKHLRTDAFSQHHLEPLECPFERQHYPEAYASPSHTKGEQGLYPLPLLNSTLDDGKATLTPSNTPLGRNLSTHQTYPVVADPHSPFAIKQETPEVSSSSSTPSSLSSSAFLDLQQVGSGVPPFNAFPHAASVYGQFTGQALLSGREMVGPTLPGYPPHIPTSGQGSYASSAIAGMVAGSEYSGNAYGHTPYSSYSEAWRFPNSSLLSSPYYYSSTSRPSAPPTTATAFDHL
Chain of Protein Wnt-3a (P27467 whole entry): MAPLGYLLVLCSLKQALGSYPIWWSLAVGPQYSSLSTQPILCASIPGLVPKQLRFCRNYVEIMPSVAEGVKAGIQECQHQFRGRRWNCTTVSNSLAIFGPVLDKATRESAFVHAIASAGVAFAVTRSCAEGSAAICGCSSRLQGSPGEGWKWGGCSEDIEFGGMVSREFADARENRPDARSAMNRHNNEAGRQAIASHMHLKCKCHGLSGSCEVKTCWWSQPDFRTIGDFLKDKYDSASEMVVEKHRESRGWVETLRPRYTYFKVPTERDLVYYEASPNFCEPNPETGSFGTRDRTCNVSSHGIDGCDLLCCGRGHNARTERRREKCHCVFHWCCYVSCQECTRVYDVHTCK
Chain of SWI/SNF-related matrix-associated actin-dependent regulator of chromatin subfamily A member 2 (P51531 whole entry): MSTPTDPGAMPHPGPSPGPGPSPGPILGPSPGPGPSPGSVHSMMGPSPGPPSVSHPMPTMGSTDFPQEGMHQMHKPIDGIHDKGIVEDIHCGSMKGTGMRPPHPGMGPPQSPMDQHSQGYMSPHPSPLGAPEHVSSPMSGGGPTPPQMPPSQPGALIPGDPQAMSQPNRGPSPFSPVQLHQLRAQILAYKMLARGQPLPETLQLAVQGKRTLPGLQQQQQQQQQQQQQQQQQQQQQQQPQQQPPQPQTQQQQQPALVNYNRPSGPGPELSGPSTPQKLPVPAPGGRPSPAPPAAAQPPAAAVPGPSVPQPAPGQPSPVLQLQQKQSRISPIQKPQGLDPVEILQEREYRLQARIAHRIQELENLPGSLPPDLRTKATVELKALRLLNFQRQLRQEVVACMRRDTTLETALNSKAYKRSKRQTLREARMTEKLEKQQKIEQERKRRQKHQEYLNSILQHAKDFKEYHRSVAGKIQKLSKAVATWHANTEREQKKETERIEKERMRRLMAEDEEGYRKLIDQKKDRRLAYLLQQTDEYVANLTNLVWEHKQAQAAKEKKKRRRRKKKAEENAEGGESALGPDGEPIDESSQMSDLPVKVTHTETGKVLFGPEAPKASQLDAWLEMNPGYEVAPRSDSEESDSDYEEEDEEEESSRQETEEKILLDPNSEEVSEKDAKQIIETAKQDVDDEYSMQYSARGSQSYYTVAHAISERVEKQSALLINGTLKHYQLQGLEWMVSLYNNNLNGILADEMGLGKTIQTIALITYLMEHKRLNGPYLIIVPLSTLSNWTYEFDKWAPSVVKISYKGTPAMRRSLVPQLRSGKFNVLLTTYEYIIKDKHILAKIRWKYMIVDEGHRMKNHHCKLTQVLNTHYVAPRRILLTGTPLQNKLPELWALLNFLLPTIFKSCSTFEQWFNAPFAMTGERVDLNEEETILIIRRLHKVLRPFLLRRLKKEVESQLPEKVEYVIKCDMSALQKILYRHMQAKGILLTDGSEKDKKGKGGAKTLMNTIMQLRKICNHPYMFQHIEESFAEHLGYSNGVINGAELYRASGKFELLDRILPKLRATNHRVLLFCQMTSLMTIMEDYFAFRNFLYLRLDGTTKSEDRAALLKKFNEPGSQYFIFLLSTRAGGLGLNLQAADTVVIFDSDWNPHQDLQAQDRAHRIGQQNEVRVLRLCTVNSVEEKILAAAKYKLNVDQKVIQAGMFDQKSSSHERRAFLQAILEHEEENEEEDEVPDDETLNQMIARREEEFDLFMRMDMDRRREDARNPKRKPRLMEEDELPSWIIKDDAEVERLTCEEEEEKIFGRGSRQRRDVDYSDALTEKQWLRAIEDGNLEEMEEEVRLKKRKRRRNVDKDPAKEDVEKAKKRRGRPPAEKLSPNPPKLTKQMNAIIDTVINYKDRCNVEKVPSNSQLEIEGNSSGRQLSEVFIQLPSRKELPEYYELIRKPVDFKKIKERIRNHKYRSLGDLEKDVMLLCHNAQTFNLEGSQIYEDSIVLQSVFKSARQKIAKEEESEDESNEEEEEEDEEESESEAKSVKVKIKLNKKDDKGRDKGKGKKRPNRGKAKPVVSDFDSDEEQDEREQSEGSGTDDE

## C[C@@H]1CN([C@H](C)CO)C(=O)c2cc(-c3cccc(C#N)c3)cnc2O[C@H]1CN(C)C(=O)C1CCC1
[1]
  AC50: 53.7 µM (active)

## C[C@@H]1CN([C@H](C)CO)C(=O)c2cc(NS(=O)(=O)c3ccc(Cl)cc3)ccc2O[C@@H](C)CCCCO[C@H]1CN(C)S(=O)(=O)c1ccc(Cl)cc1
[2]
  AC50: 4.76 µM (active)
[3]
  AC50: 25.1 µM (active)
[4]
  AC50: 32.9 µM (active)
[5]
  AC50: 15.9 µM (active)
[6]
  AC50: 54.6 µM (active)

## O=C(Nc1cc(NCC2CCCO2)ncn1)c1ccccc1 (stereo unspecified)
[7]
  IC50: > 21.8 µM (inactive)

## CN(c1cccc(NC(=O)c2ccc(C(C)(C)C)cc2)c1)S(C)(=O)=O
[8]
  AC50: 23.1 µM (active)
[9]
  AC50: 22.6 µM (active)

## CNC(=S)N/N=C/c1cn(CCOc2ccc(OC)cc2)c2ccccc12
[10]
  IC50: > 69.5 µM (inactive)
[11]
  IC50: > 69.5 µM (inactive)

## Cc1cc(C(=O)NN=C(S)Nc2cccc(C(F)(F)F)c2)nn1C
[12]
  IC50: > 122 µM (inactive)

## COc1ccc(NC(=O)N(C)C[C@@H]2OCCCC[C@H](C)Oc3ccc(NC(=O)C4CCCCC4)cc3C(=O)N([C@H](C)CO)C[C@@H]2C)cc1
[13]
  AC50: 27.8 µM (active)
[14]
  AC50: 2.67 µM (active)

## Cc1c(C(=O)OCC(=O)NCC2CCCO2)oc2ccccc12 (stereo unspecified)
[15]
  IC50: > 80 µM (inactive)
[16]
  IC50: 11.9 µM (active)

## O=C(N/N=C/c1cccc(Br)c1)c1ccc(Br)cc1
[17]
  IC50: 39.7 µM (inactive)
[18]
  IC50: 4.51 µM (active)
[19]
  IC50: 12.2 µM (active)
[20]
  IC50: 41.4 µM (inactive)

## O=C1/C(=C/c2ccco2)Cc2ccccc21
[21]
  EC50: > 91.1 µM (inactive)
[22]
  EC50: > 91.1 µM (inactive)

## C[C@@H]1CN([C@@H](C)CO)C(=O)c2c(c3ccccc3n2C)-c2ccccc2CO[C@@H]1CN(C)C(=O)Nc1ccc(F)cc1
[23]
  AbsAC35: 304.17 µM

## CC(CNC(=O)[C@@H](Cc1ccccc1)NC(=O)[C@H]1O[C@@H](n2cnc3c(=O)[nH]c(N)nc32)[C@H](O)[C@@H]1O)c1ccccc1 (stereo partly specified)
[24]
  IC50: > 29.9 µM (inactive)
[25]
  EC50: > 29.9 µM (inactive)

## Cc1ccc2nc3c(O)n(CC(=O)N4CC(C)CC(C)C4)ncc-3c2c1 (stereo unspecified)
[26]
  IC50: 133 µM (inactive)
